# From article PMC5447729 (Frontiers in Pharmacology, 2017)
# Where two headings read alike, the source gives them in different places.
# Tests used:
# db/db mice = test: Three-week oral treatment of diabetic db/db mice (FBG, ITT, serum parameters, organ indices); type: in vivo
# Protocol: All animal experiments were performed according to procedures approved by the Animal Experimentation Ethics Committee of the Beijing Institute of Pharmacology and Toxicology for animal care, handling and termination. Eight-week-old male homozygous C57BLKS/J db/db mice were obtained from the Model Animal Research Centre of Nanjing University (Nanjing, China) and fed a standard mouse diet. Male C57BL/6 mice (4 weeks old) were obtained from the Laboratory Animal Centre of the Beijing Institute of Pharmacology and Toxicology and fed a high-fat, high-sugar diet for 16 weeks to induce diet-induced obesity (DIO). […] Body weight (BW) and fasting blood glucose were recorded regularly during the treatment period. […] Blood glucose was monitored at 0, 30, 60, 90, and 120 min after the oral administration of 1 g kg^−1 dextrose. […]
# (§1) Serum triglyceride (TG), cholesterol, free fatty acid (FFA), and glucose levels were measured by using commercial kits (Nanjing Jiancheng Bioengineering Institute, Nanjing, China) according to the manufacturer's instructions. Serum adiponectin, monocyte chemotactic protein 1(MCP1), Interleukin-6 (IL-6), Receptor activator of nuclear factor kappa-B ligand (RANKL), and Adrenocorticotropic Hormone (ACTH) were quantified using a multiplex Luminex assay (Millipore/Linco Research).
# DIO mice = test: Three-week oral treatment of insulin-resistant DIO mice (OGTT, FBG, serum factors, organ indices, liver lipids, histology); type: in vivo; conditions: for body weight and WAT: RSG 10 mg kg−1, INT131 30 mg kg−1; for serum adiponectin / serum pro-inflammatory cytokines MCP-1 and IL-6: multiplex detection; for morphology of hepatocyte and hepatic lipid content: vs vehicle-treated
# Protocol: All animal experiments were performed according to procedures approved by the Animal Experimentation Ethics Committee of the Beijing Institute of Pharmacology and Toxicology for animal care, handling and termination. Eight-week-old male homozygous C57BLKS/J db/db mice were obtained from the Model Animal Research Centre of Nanjing University (Nanjing, China) and fed a standard mouse diet. Male C57BL/6 mice (4 weeks old) were obtained from the Laboratory Animal Centre of the Beijing Institute of Pharmacology and Toxicology and fed a high-fat, high-sugar diet for 16 weeks to induce diet-induced obesity (DIO). […] Compounds were dissolved in DMSO and suspended in 0.5% carboxymethylcellulose. Body weight (BW) and fasting blood glucose were recorded regularly during the treatment period. After 14 d of treatment, db/db mice were subjected to insulin tolerance tests (ITT) and fasted for 6 h prior to the intraperitoneal (i.p.) injection of 1 U kg^−1 insulin, and blood glucose was estimated at the indicated time points. […] Blood glucose was monitored at 0, 30, 60, 90, and 120 min after the oral administration of 1 g kg^−1 dextrose. […] Interscapular brown adipose tissue (iBAT), epididymal white adipose tissue (eWAT), subcutaneous inguinal white adipose tissue (sWAT), liver and skeletal muscle were excised, weighed and rapidly frozen in liquid nitrogen for subsequent gene expression and western blot analysis.
# as §1
# To determine TG and total cholesterol levels in the liver, 50 mg of frozen tissue was homogenized with a TissueLyserII (Qiagen, Germantown, MD, USA) in 1 ml of chloroform/methanol (2:1, v/v), after which 200 μL of 0.05 M KCl was added, and the solution was centrifuged at 5,000 rpm for 10 min. The aqueous phase was removed, and the organic phase was filtered and dried by nitrogen flushing. After evaporation of the chloroform under nitrogen, lipid samples were resuspended in isopropyl alcohol, and TG and total cholesterol content were determined with enzymatic assays.
# sWAT, iBAT, and liver samples were fixed, embedded in paraffin and sectioned. Sections were cut at a thickness of […] and stained with haematoxylin/eosin (HE). Liver sections as well as adipose sections from at least 3 mice per group were also stained with HE. Adipocyte (n = 100 adipocytes) diameter was measured using Image J software, and the average diameter was recorded for each animal.
# PPARγ target genes = test: Real-time PCR gene expression in tissues of treated DIO and db/db mice; type: in vivo; conditions: for expression of BAT marker genes (Ucp1, Cidea, Elove3, Cox7a, Cox8b) and adipogenesis and lipogenesis genes (aP2, adiponectin, Lpl, Cd36) in BAT: more pronounced in the INT131 group; for expression of adipogenesis and fatty acid metabolism genes in sWAT and eWAT / levels of macrophage markers Cd68 and F4/80, pro-inflammatory cytokines IL-6 and TNFα and chemokine Mcp1 / Ucp1, Elove3 and aP2 gene expression in skeletal muscle: DIO and db/db mice; for expression of adipogenesis and fatty acid metabolism genes in sWAT and eWAT / levels of macrophage markers Cd68 and F4/80, pro-inflammatory cytokines IL-6 and TNFα and chemokine Mcp1: sWAT and eWAT
# Protocol: Total RNA was isolated from tissues with a High-Purity Total RNA Extraction Kit (BioTeke Corporation, Beijing, China) according to the manufacturer's instructions. RNA was reverse-transcribed into cDNA with a High Capacity cDNA Reverse Transcription Kit (Transgenes Corporation, Beijing, China). Real-time PCR was carried out on an ABI 7300 Real-time PCR System (Applied Biosystems, Foster City, CA, USA) using SYBR Green PCR Master Mix (Roche Molecular Biochemicals, Mannheim, Germany). Relative gene expression levels were normalized to the β-actin gene and quantified by using the 2^−ΔΔCt method. Primer sequences are listed in (Supplementary Table 1).
# PRDM16 = test: Western blot of PRDM16 protein in sWAT of treated mice; type: in vivo; conditions: DIO and db/db mice
# Source text: To obtain tissue lysates, eWAT and sWAT were homogenized in 10% sodium dodecyl sulfate buffer containing protease and phosphatase inhibitors. An antibody targeting PR domain containing 16 (PRDM16) (Abcam) was used for western blotting. Bands were detected with ECL enhanced chemiluminescence detection reagents (Applygen, Beijing, China) and scanned with an Alpha Imager 5500 (Alpha Innotech, San Leandro, CA, USA) imaging densitometer.
# [1] = RSG and INT131 concentrations in plasma and tissue after a single oral dose (UHPLC-MS/MS); type: in vivo, DIO mice; conditions: for Tmax: C57BL/6, mouse, po, 30 mg/kg, read-out: time of peak concentration; for average residency time: blood concentration-time profile, pre-test, single oral gavage RSG 10 mg kg−1 or INT131 30 mg kg−1
# C2C12 cells = test: Conversion of myogenic C2C12 cells to adipocytes (gene expression); type: cell-based; conditions: 10 μM for 5 d after confluence, in the same manner as RSG
# [2] = system: mouse 3T3-L1 preadipocytes; test: Differentiation of mouse 3T3-L1 preadipocytes; type: cell-based; conditions: we and others (Motani et al., 2009)
# [3] = system: diabetic Zucker (fa/fa) fatty rats; set-up: method as in prior studies in rodents; conditions: 3 mg kg−1 day−1 INT131 vs 1 mg kg−1 RSG, ref prior studies in rodents; cited from earlier work
# [4] = all assayed tissues, DIO mice, RSG 10 mg kg−1 oral
SMILES,body weight and WAT (DIO mice),serum adiponectin (DIO mice),serum pro-inflammatory cytokines MCP-1 and IL-6 (DIO mice),sizes of expanded adipocytes in the sWAT (DIO mice; HE staining),morphology of hepatocyte and hepatic lipid content (DIO mice),"expression of BAT marker genes (Ucp1, Cidea, Elove3, Cox7a, Cox8b) and adipogenesis and lipogenesis genes (aP2, adiponectin, Lpl, Cd36) in BAT (PPARγ target genes; DIO mice)",expression of adipogenesis and fatty acid metabolism genes in sWAT and eWAT (PPARγ target genes),"levels of macrophage markers Cd68 and F4/80, pro-inflammatory cytokines IL-6 and TNFα and chemokine Mcp1 (PPARγ target genes)","Ucp1, Elove3 and aP2 gene expression in skeletal muscle (PPARγ target genes)",PRDM16 protein levels in sWAT (PRDM16),average residency time [1] [h],other results
"O=S(=O)(Nc1cc(Cl)c(Oc2cnc3ccccc3c2)c(Cl)c1)c1ccc(Cl)cc1Cl [INT131, 2,4-dichloro-N-[3,5-dichloro-4-(quinolin-3-yloxy)phenyl] benzene sulfonamide]",no impact,equal elevation,decreased levels,markedly decreased,no impact,substantially up-regulation,similarly up-regulated,comparably reduced,enhanced,markedly increased,4.4 ± 1.17,"body weight gain compared with RSG (db/db mice; 10 and 30 mg kg−1 INT131 vs 10 mg kg−1 RSG): equal body weight gains; fasting blood glucose (FBG) (db/db mice; INT131 10 or 30 mg kg−1 by gavage once daily, within 1 week of treatment): lowered fasting blood glucose (FBG) in a dose-dependent manner; hepatic weight (DIO mice; 30 mg kg−1 INT131): did not induce an increase; brown adipocyte hypertrophy (adipocyte size and area in BAT) (DIO mice; BAT, HE staining): more severe brown adipocyte hypertrophy; Cd36 expression in the liver (PPARγ target genes; liver, DIO mice): only slightly induced an increase; expression of aP2, adiponectin and cidec in the liver (PPARγ target genes; liver, DIO mice): did not induce; induction of adipsin and cidea in the liver compared with RSG (PPARγ target genes; liver, DIO mice): to a lesser degree; Tmax ([1]; plasma and liver): 0.5 h; Tmax ([1]; skeletal muscle, eWAT, sWAT, BAT): 4 h; switch of myogenic cells to adipocytes (adipogenesis and myogenesis gene expression) (C2C12 cells): able to switch myogenic cells to adipocytes; promoting the differentiation of preadipocytes, compared with RSG [2]: weaker effects; blood glucose lowering effects compared with RSG [3]: identical"
"CN(CCOc1ccc(CC2SC(=O)NC2=O)cc1)c1ccccn1 (stereo not shown) [RSG, 5-[[4-[2-[methyl(pyridin-2-yl)amino]ethoxy]phenyl]methyl]-1,3-thiazolidine-2,4-dione]",no impact,equal elevation,decreased levels,markedly decreased,dramatically aggravated hepatic hypertrophy and increased lipid accumulation,substantially up-regulation,similarly up-regulated,comparably reduced,enhanced,markedly increased,4.03 ± 0.83,"expression of adipocyte-specific genes aP2, adipsin, adiponectin, cidea and cidec in the liver (PPARγ target genes; liver, DIO mice): robustly up-regulated; expression of genes of lipogenesis (Acc) and fatty acid uptake (Cd36) in the liver (PPARγ target genes; liver, DIO mice): dramatically stimulated; expression of the key gluconeogenesis gene (Pepck) in the liver (PPARγ target genes; liver, DIO mice): inhibited; expression of fatty acid oxidation genes Cpt1b and Pdk4 in the liver (PPARγ target genes; liver, DIO mice, RSG rather than INT131): marked up-regulation; time of peak concentration (Cmax) [1, 4]: 0.5 h; tissue concentration by 12 h [1, 4]: almost negligible"
